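Exposure lasted 48 hours, with cells grown in 96-well plates and compounds tested at five concentrations. TGI is the concentration that stops growth completely.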
Assays:
Test in all cases: NCI-60 cell line screen, 48 h
KM12 colon = system: KM12 colon
A549 NSCLC = system: A549 NSCLC
RXF 393 renal = system: RXF 393 renal
EKVX NSCLC = system: EKVX NSCLC
COLO 205 colon = system: COLO 205 colon
SK-MEL-5 melanoma = system: SK-MEL-5 melanoma
U251 CNS = system: U251 CNS
OVCAR-3 ovarian = system: OVCAR-3 ovarian
HL-60(TB) leukemia = system: HL-60(TB) leukemia
LOX IMVI melanoma = system: LOX IMVI melanoma
MALME-3M melanoma = system: MALME-3M melanoma
HCC-2998 colon = system: HCC-2998 colon
CCRF-CEM leukemia = system: CCRF-CEM leukemia
SK-MEL-28 melanoma = system: SK-MEL-28 melanoma
SW-620 colon = system: SW-620 colon
HOP-62 NSCLC = system: HOP-62 NSCLC
NCI-H522 lung = system: NCI-H522 lung
SNB-19 CNS = system: SNB-19 CNS
IGROV1 ovarian = system: IGROV1 ovarian
MDA-MB-435 = system: MDA-MB-435
HT29 colon = system: HT29 colon
HS 578T breast = system: HS 578T breast
TK-10 renal = system: TK-10 renal
SF-539 CNS = system: SF-539 CNS
MDA-N = system: MDA-N
A498 renal = system: A498 renal
SNB-75 CNS = system: SNB-75 CNS
NCI-H460 lung = system: NCI-H460 lung
CAKI-1 renal = system: CAKI-1 renal
OVCAR-8 ovarian = system: OVCAR-8 ovarian
MOLT-4 leukemia = system: MOLT-4 leukemia
K-562 leukemia = system: K-562 leukemia
SR leukemia = system: SR leukemia
OVCAR-5 ovarian = system: OVCAR-5 ovarian
T-47D breast = system: T-47D breast
UO-31 renal = system: UO-31 renal
SK-MEL-2 melanoma = system: SK-MEL-2 melanoma
UACC-62 melanoma = system: UACC-62 melanoma
SF-268 CNS = system: SF-268 CNS
NCI-H23 lung = system: NCI-H23 lung
HCT-116 colon = system: HCT-116 colon
SN12C renal = system: SN12C renal
OVCAR-4 ovarian = system: OVCAR-4 ovarian
UACC-257 melanoma = system: UACC-257 melanoma
786-0 renal = system: 786-0 renal
HCT-15 colon = system: HCT-15 colon
SF-295 CNS = system: SF-295 CNS
BT-549 breast = system: BT-549 breast
ACHN renal = system: ACHN renal
SK-OV-3 ovarian = system: SK-OV-3 ovarian
NCI/ADR-RES ovarian = system: NCI/ADR-RES ovarian
NCI-H226 lung = system: NCI-H226 lung
M14 melanoma = system: M14 melanoma

CN(C)c1ccc(C(=O)NCCCCCCC(=O)NO)cc1
TGI (KM12 colon): 35.4 µM | TGI (A549 NSCLC): 10.9 µM | TGI (RXF 393 renal): 1.73 µM | TGI (EKVX NSCLC): > 100 µM | TGI (COLO 205 colon): 0.832 µM | TGI (SK-MEL-5 melanoma): 1.39 µM | TGI (U251 CNS): 3.64 µM | TGI (OVCAR-3 ovarian): 4.38 µM | TGI (HL-60(TB) leukemia): > 63.8 µM | TGI (LOX IMVI melanoma): 1.51 µM | TGI (MALME-3M melanoma): > 100 µM | TGI (HCC-2998 colon): 1.48 µM | TGI (CCRF-CEM leukemia): > 100 µM | TGI (SK-MEL-28 melanoma): 13.9 µM | TGI (SW-620 colon): > 21.5 µM | TGI (HOP-62 NSCLC): 98.8 µM | TGI (NCI-H522 lung): 0.739 µM | TGI (SNB-19 CNS): > 100 µM | TGI (IGROV1 ovarian): 2.69 µM | TGI (MDA-MB-435): 3.62 µM | TGI (HT29 colon): > 32.5 µM | TGI (HS 578T breast): > 23.8 µM | TGI (TK-10 renal): 2.7 µM | TGI (SF-539 CNS): > 53 µM | TGI (MDA-N): 0.908 µM | TGI (A498 renal): 3.07 µM | TGI (SNB-75 CNS): 2.2 µM | TGI (NCI-H460 lung): 5.21 µM | TGI (CAKI-1 renal): 2.81 µM | TGI (OVCAR-8 ovarian): 2.46 µM | TGI (MOLT-4 leukemia): > 100 µM | TGI (K-562 leukemia): > 100 µM | TGI (SR leukemia): > 76 µM | TGI (OVCAR-5 ovarian): 1.49 µM | TGI (T-47D breast): 1.04 µM | TGI (UO-31 renal): 5.2 µM | TGI (SK-MEL-2 melanoma): 0.932 µM | TGI (UACC-62 melanoma): 1.37 µM | TGI (SF-268 CNS): 6.26 µM | TGI (NCI-H23 lung): 3.66 µM | TGI (HCT-116 colon): 0.972 µM | TGI (SN12C renal): 2.03 µM | TGI (OVCAR-4 ovarian): > 25.3 µM | TGI (UACC-257 melanoma): 2.13 µM | TGI (786-0 renal): > 30.4 µM | TGI (HCT-15 colon): > 38.3 µM | TGI (SF-295 CNS): 1.82 µM | TGI (BT-549 breast): > 28.3 µM | TGI (ACHN renal): 5.45 µM | TGI (SK-OV-3 ovarian): 1.54 µM | TGI (NCI/ADR-RES ovarian): 0.728 µM | TGI (NCI-H226 lung): 17.8 µM | TGI (M14 melanoma): > 38 µM

Reference: PubChem BioAssay (NCI)
